The molecules below were run on HCV replicon cells (assay: Cell-based HCV replicon assay (replicon RNA by Taqman real time PCR)). Settings: HCV replicon 1b, cells harvested on day 3; read-out: 1b EC50.
Molecule COc1nc(N)nc2c1ncn2[C@@H]1O[C@@H]2COP(=O)(OC3CCC3)O[C@H]2[C@@]1(C)N=[N+]=[N-] (single isomer, unassigned) [Compound 104] has an EC50 of 10.9 µM. In the case of CC(C)OP1(=O)OC[C@H]2O[C@@H](n3ccc(=O)[nH]c3=O)[C@](C)(N=[N+]=[N-])[C@@H]2O1 (single isomer, unassigned) [Compound 563], the EC50 is reported as > 100 µM. In the case of COC(=O)[C@H](C)NP1(=O)OC[C@H]2O[C@@H](n3ccc(N)nc3=O)[C@](C)(N=[N+]=[N-])[C@@H]2O1 (single isomer, unassigned) [Compound 530], the EC50 is reported as 67 µM.

Same assay, conditions: Hepatitis C virus, 72 h, HCV replicon 1b, cells harvested on day 3; read-out: 1b EC50
CCOc1nc(N)nc2c1ncn2[C@@H]1O[C@@H]2COP(=O)(OC3CCCC3)O[C@H]2[C@@]1(C)N=[N+]=[N-] (some centres unmarked) [Compound 73] was tested, and the EC50 was 0.7 µM. For CCCOP1(=O)OC[C@H]2O[C@@H](n3ccc(N)nc3=O)[C@](C)(N=[N+]=[N-])[C@@H]2O1 (some centres unmarked) [Compound 33], the EC50 was > 100 µM.

Same assay, conditions: Hepatitis C virus, 72 h, read-out: 1b EC50
CCOc1nc(N)nc2c1ncn2[C@@H]1O[C@H](COP(=O)(N[C@@H](C)C(=O)OC2CCCCC2)Oc2ccc(F)cc2)[C@@H](O)[C@@]1(C)N=[N+]=[N-] (some centres unmarked) [Compound 64] gave an EC50 of 0.4 µM. In the case of CCOc1nc(N)nc2c1ncn2[C@@H]1O[C@H](COP(=O)(N[C@@H](C)C(=O)OC)Oc2cccc3ccccc23)[C@@H](O)[C@@]1(C)N=[N+]=[N-] (single isomer, unassigned) [Compound 355], the EC50 is reported as 1.3 µM. Work on CC(C)OC(=O)[C@H](C)NP(=O)(OC[C@H]1O[C@@H](n2ccc(=O)[nH]c2=O)[C@](C)(N=[N+]=[N-])[C@@H]1O)Oc1ccccc1 (single isomer, unassigned) [Compound 157] yielded an EC50 of 49 µM. Molecule CCCOC(=O)[C@H](C)NP(=O)(OC[C@H]1O[C@@H](n2ccc(=O)[nH]c2=O)[C@](C)(N=[N+]=[N-])[C@@H]1O)Oc1cccc2ccccc12 (some centres unmarked) [Compound 374] has an EC50 of 5.6 µM. CCCCOC(=O)[C@H](C)NP(=O)(OC[C@H]1O[C@@H](n2ccc(=O)[nH]c2=O)[C@](C)(N=[N+]=[N-])[C@@H]1O)Oc1ccc(F)cc1 (some centres unmarked) [Compound 367] showed an EC50 of 3.3 µM. For COC(=O)[C@H](C)NP(=O)(OC[C@H]1O[C@@H](n2ccc(=O)[nH]c2=O)[C@](C)(N=[N+]=[N-])[C@@H]1O)Oc1ccccc1 (single isomer, unassigned) [Compound 158], the EC50 was 9 µM. COC(=O)c1ccccc1OP(=O)(N[C@@H](C)C(=O)OC)OC[C@H]1O[C@@H](n2cnc3c(OC)nc(N)nc32)[C@](C)(N=[N+]=[N-])[C@@H]1O (some centres unmarked) [Compound 223] was tested, and the EC50 was 8.8 µM. COc1nc(N)nc2c1ncn2[C@@H]1O[C@H](COP(=O)(N[C@@H](C)C(=O)OC(C)C)Oc2ccc(Cl)c(Cl)c2)[C@@H](O)[C@@]1(C)N=[N+]=[N-] (some centres unmarked) [Compound 244] gave an EC50 of 6 µM. For COC(=O)[C@H](C)NP(=O)(OC[C@H]1O[C@@H](n2ccc(N)nc2=O)[C@](C)(N=[N+]=[N-])[C@@H]1O)Oc1ccc(F)cc1 (some centres unmarked) [Compound 36], the EC50 was 40 µM. Work on CCCOC(=O)[C@H](C)NP(=O)(OC[C@H]1O[C@@H](n2ccc(=O)[nH]c2=O)[C@](C)(N=[N+]=[N-])[C@@H]1O)Oc1ccccc1 (single isomer, unassigned) [Compound 147] yielded an EC50 of 5.6 µM. COC(=O)[C@H](C)NP(=O)(OC[C@H]1O[C@@H](n2ccc(=O)[nH]c2=O)[C@](C)(N=[N+]=[N-])[C@@H]1O)Oc1ccccc1Cl (some centres unmarked) [Compound 40] showed an EC50 of 4 µM. CCOc1nc(N)nc2c1ncn2[C@@H]1O[C@H](COP(=O)(N[C@@H](C)C(=O)OCC(C)(C)C)Oc2ccccc2Cl)[C@@H](O)[C@@]1(C)N=[N+]=[N-] (some centres unmarked) [Compound 357] gave an EC50 of 100 µM. With CCCCOC(=O)[C@H](C)NP(=O)(OC[C@H]1O[C@@H](n2cnc3c(OCC)nc(N)nc32)[C@](C)(N=[N+]=[N-])[C@@H]1O)Oc1ccccc1 (some centres unmarked) [Compound 27] the EC50 was 0.1 µM. C[C@@H](NP(=O)(OC[C@H]1O[C@@H](n2ccc(=O)[nH]c2=O)[C@](C)(N=[N+]=[N-])[C@@H]1O)Oc1ccccc1)C(=O)OCc1ccccc1 (some centres unmarked) [Compound 45] gave an EC50 of 5.6 µM. CCOC(=O)c1cccc(OP(=O)(N[C@@H](C)C(=O)OC)OC[C@H]2O[C@@H](n3cnc4c(OC)nc(N)nc43)[C@](C)(N=[N+]=[N-])[C@@H]2O)c1 (some centres unmarked) [Compound 221] showed an EC50 of 0.8 µM. For CCCCOC(=O)[C@H](C)NP(=O)(OC[C@H]1O[C@@H](n2cnc3c(OC)nc(N)nc32)[C@](C)(N=[N+]=[N-])C1O)Oc1cccc2ccccc12 (single isomer, unassigned) [Compound 297], the EC50 was 0.1 µM. CCCC(CCC)COC(=O)[C@H](C)NP(=O)(OC[C@H]1O[C@@H](n2ccc(N)nc2=O)[C@](C)(N=[N+]=[N-])[C@@H]1O)Oc1ccccc1 (some centres unmarked) [Compound 317] showed an EC50 of 39 µM. Molecule CCOc1nc(N)nc2c1ncn2[C@@H]1O[C@H](COP(=O)(N[C@@H](C)C(=O)OCc2ccccc2)Oc2ccccc2)[C@@H](O)[C@@]1(C)N=[N+]=[N-] (some centres unmarked) [Compound 69] has an EC50 of 2.2 µM. In the case of CCOc1nc(N)nc2c1ncn2[C@@H]1O[C@H](COP(=O)(N[C@@H](C)C(=O)OC2CCCCC2)Oc2ccc(Cl)cc2)[C@@H](O)[C@@]1(C)N=[N+]=[N-] (some centres unmarked) [Compound 307], the EC50 is reported as 33 µM. Work on COC(=O)[C@H](C)NP(=O)(OC[C@H]1O[C@@H](n2cnc3c(OC)nc(N)nc32)[C@](C)(N=[N+]=[N-])[C@@H]1O)Oc1ccc(Cl)cc1 (some centres unmarked) [Compound 79] yielded an EC50 of 0.2 µM. COC(=O)[C@H](C)NP(=O)(OC[C@H]1O[C@@H](n2cnc3c(N4CCC4)nc(N)nc32)[C@](C)(N=[N+]=[N-])[C@@H]1O)Oc1ccccc1Cl (some centres unmarked) [Compound 388] was tested, and the EC50 was 1.6 µM. CCOc1nc(N)nc2c1ncn2[C@@H]1O[C@H](COP(=O)(N[C@@H](C)C(=O)OC)Oc2ccc(Cl)cc2)[C@@H](O)[C@@]1(C)N=[N+]=[N-] (some centres unmarked) [Compound 63] showed an EC50 of 0.4 µM. CCOC(=O)[C@H](C)NP(=O)(OC[C@H]1O[C@@H](n2cnc3c(N4CCC4)nc(N)nc32)[C@](C)(N=[N+]=[N-])[C@@H]1O)Oc1ccccc1 (some centres unmarked) [Compound 391] showed an EC50 of 1.5 µM. Work on CCCCOC(=O)[C@H](C)NP(=O)(OC[C@H]1O[C@@H](n2cnc3c(OC)nc(N)nc32)[C@](C)(N=[N+]=[N-])[C@@H]1O)Oc1ccccc1 (some centres unmarked) [Compound 249] yielded an EC50 of 0.9 µM. With COC(=O)[C@H](C)NP(=O)(OC[C@H]1O[C@@H](n2ccc(N)nc2=O)[C@](C)(N=[N+]=[N-])[C@@H]1O)Oc1ccc(Cl)c(Cl)c1 (single isomer, unassigned) [Compound 343] the EC50 was 61 µM.

Same assay, conditions: read-out: 1b EC50
In the case of COC(=O)[C@H](C)NP(=O)(OC[C@H]1O[C@@H](n2ccc(=O)[nH]c2=O)[C@](C)(N=[N+]=[N-])[C@@H]1O)Oc1cccc2ccccc12 (some centres unmarked) [Compound 235], the EC50 is reported as 0.003 µM. In the case of CC(C)OC(=O)[C@H](C)NP(=O)(OC[C@H]1O[C@@H](n2ccc(N)nc2=O)[C@](C)(N=[N+]=[N-])[C@@H]1O)Oc1ccccc1Cl (some centres unmarked) [Compound 96], the EC50 is reported as 0.6 µM. COC(=O)[C@H](C)NP(=O)(OC[C@H]1O[C@@H](n2ccc(N)nc2=O)[C@](C)(N=[N+]=[N-])[C@@H]1O)Oc1ccc(Cl)c(Cl)c1 (single isomer, unassigned) [Compound 344] was tested, and the EC50 was 35 µM. CCOc1nc(N)nc2c1ncn2[C@@H]1O[C@H](COP(=O)(N[C@@H](C)C(=O)OCc2ccccc2)Oc2ccccc2)[C@@H](O)[C@@]1(C)N=[N+]=[N-] (single isomer, unassigned) [Compound 351] was tested, and the EC50 was 2.6 µM. CCCCOC(=O)[C@H](C)NP(=O)(OC[C@H]1O[C@@H](n2cnc3c(OCC)nc(N)nc32)[C@](C)(N=[N+]=[N-])[C@@H]1O)Oc1cccc2ccccc12 (single isomer, unassigned) [Compound 172] gave an EC50 of 0.4 µM. With COC(=O)[C@H](C)NP(=O)(OC[C@H]1O[C@@H](n2cnc3c(N4CCC4)nc(N)nc32)[C@](C)(N=[N+]=[N-])[C@@H]1O)Oc1ccccc1Cl (some centres unmarked) [Compound 389] the EC50 was 2.3 µM. COc1nc(N)nc2c1ncn2[C@@H]1O[C@H](COP(=O)(N[C@@H](C)C(=O)OC2CCCCC2)Oc2ccc(Cl)cc2)[C@@H](O)[C@@]1(C)N=[N+]=[N-] (single isomer, unassigned) [Compound 273] gave an EC50 of 2.8 µM. Molecule CCOc1nc(N)nc2c1ncn2[C@@H]1O[C@H](COP(=O)(N[C@@H](C)C(=O)OCc2ccccc2)Oc2ccccc2)[C@@H](O)[C@@]1(C)N=[N+]=[N-] (single isomer, unassigned) [Compound 350] has an EC50 of 1 µM. CCOc1nc(N)nc2c1ncn2[C@@H]1O[C@H](COP(=O)(N[C@@H](C)C(=O)OC(C)C)Oc2ccccc2)[C@@H](O)[C@@]1(C)N=[N+]=[N-] (single isomer, unassigned) [Compound 165] showed an EC50 of 6.2 µM. COc1nc(N)nc2c1ncn2[C@@H]1O[C@H](COP(=O)(N[C@@H](C)C(=O)OCC(C)C)Oc2ccccc2)C(O)[C@@]1(C)N=[N+]=[N-] (single isomer, unassigned) [Compound 277] showed an EC50 of 2.7 µM. COc1nc(N)nc2c1ncn2[C@@H]1O[C@H](COP(=O)(N[C@@H](C)C(=O)OCC(C)(C)C)Oc2ccccc2)C(O)[C@@]1(C)N=[N+]=[N-] (single isomer, unassigned) [Compound 292] gave an EC50 of 0.4 µM. For CC(C)COC(=O)[C@H](C)NP(=O)(OC[C@H]1O[C@@H](n2ccc(=O)[nH]c2=O)[C@](C)(N=[N+]=[N-])[C@@H]1O)Oc1ccccc1 (single isomer, unassigned) [Compound 211], the EC50 was 0.8 µM. Work on COC(=O)[C@H](C)NP(=O)(OC[C@H]1O[C@@H](n2ccc(N)nc2=O)[C@](C)(N=[N+]=[N-])[C@@H]1O)Oc1ccc(F)cc1 (single isomer, unassigned) [Compound 188] yielded an EC50 of 5.6 µM. COC(=O)[C@H](C)NP(=O)(OC[C@H]1O[C@@H](n2cnc3c(OC)nc(N)nc32)[C@](C)(N=[N+]=[N-])[C@@H]1O)Oc1ccc(F)cc1 (single isomer, unassigned) [Compound 266] gave an EC50 of 2.4 µM. For CCOC(=O)[C@H](C)NP(=O)(OC[C@H]1O[C@@H](n2cnc3c(OC)nc(N)nc32)[C@](C)(N=[N+]=[N-])[C@@H]1O)Oc1ccc(F)cc1 (single isomer, unassigned) [Compound 271], the EC50 was 4.4 µM. CCOC(=O)[C@H](C)NP(=O)(OC[C@H]1O[C@@H](n2ccc(=O)[nH]c2=O)[C@](C)(N=[N+]=[N-])[C@@H]1O)Oc1ccccc1 (single isomer, unassigned) [Compound 151] gave an EC50 of 5.1 µM. COC(=O)[C@H](C)NP(=O)(OC[C@H]1O[C@@H](n2ccc(N)nc2=O)[C@](C)(N=[N+]=[N-])[C@@H]1O)Oc1ccc(Cl)c(Cl)c1 (single isomer, unassigned) [Compound 194] showed an EC50 of 35 µM.
